We go through 16 compounds from ChEMBL document CHEMBL3045850, “Effects of Pyridalyl, a Novel Insecticidal Agent, on Cultured Sf9 Cells” (2005).

Assay [1] relates to Sf9. Description: Induction of cell growth in Spodoptera frugiperda (fall armyworm) Sf9 cells at 10 uM after 72 hr by trypan blue dye exclusion test. Type of assay: functional, cell-based.
For assay [2], the system named is Spodoptera litura. The assay is described as follows: Insecticidal activity against Spodoptera litura assessed as mortality at 500 mg/L after 6 days. Type of assay: functional. The note with it: 144 h.
The test system of assay [3] is Sf9. The assay is described as follows: Cytotoxicity against Spodoptera frugiperda (fall armyworm) Sf9 cells at 10 uM after 72 hr by trypan blue dye exclusion test. The class given is functional, cell-based.
The test system of assay [4] is Sf9. Description: Cytotoxicity against Spodoptera frugiperda (fall armyworm) Sf9 cells at 0.1 to 1 uM after 72 hr by trypan blue dye exclusion test. The class given is functional, cell-based.
Assay [5] deals with Sf9. Description: Cytotoxicity against Spodoptera frugiperda (fall armyworm) Sf9 cells at 1 to 10 uM after 72 hr by trypan blue dye exclusion test. The class given is functional, cell-based.
Assay [6] has as its system Spodoptera litura. Description: Inhibition of mitochondrial respiration in Spodoptera litura mitochondria assessed as oxygen consumption at 20 uM at 3:1 minute after addition of 0.2 mM of rotenone and 0.1 mM of succinate (reference value: 0.5%). The class given is functional. On the set-up: scale not given: the % may be the effect or the level left.
For assay [7], the system named is Spodoptera litura. Description: Inhibition of mitochondrial respiration in Spodoptera litura mitochondria assessed as oxygen consumption at 20 uM at 2:1 minute after addition of 0.1 mM of ADP (reference value: 54.4%). Type of assay: functional. On the set-up: scale not given: the % may be the effect or the level left.
The test system of assay [8] is Spodoptera litura. Description: Inhibition of mitochondrial respiration in Spodoptera litura mitochondria assessed as oxygen consumption at 20 uM at 1:1 minute after addition of 0.1 mM of ADP (reference value: 12.2%). Type of assay: functional. Also on record: scale not given: the % may be the effect or the level left.
Assay [9] relates to Sf9. Description: Cytotoxicity against Spodoptera frugiperda (fall armyworm) Sf9 cells assessed as formation of granular structures at 1 to 10 uM after 72 hr by microscopic analysis. Type of assay: functional, cell-based.
Assay [10] has as its system Sf9. Description: Cytotoxicity against Spodoptera frugiperda (fall armyworm) Sf9 cells at 0.01 to 10 uM after 72 hr by trypan blue dye exclusion test. The class given is functional, cell-based.
Assay [11] relates to Sf9. Description: Cytotoxicity against Spodoptera frugiperda (fall armyworm) Sf9 cells at 0.1 to 10 uM after 72 hr by trypan blue dye exclusion test. Type of assay: functional, cell-based.
Assay [12] concerns Sf9. The assay is described as follows: Cytotoxicity against Spodoptera frugiperda (fall armyworm) Sf9 cells at 5 uM after 72 hr by trypan blue dye exclusion test. Type of assay: functional, cell-based.

Activity calls are given as the source filed them. No cut-off for these calls is given here.

As usually defined, the mortality is the percentage killed.

As to `CNC(=O)ON=C(C)SC`, the result with Sf9 [1] was Active.
With `CC(COc1cc(Cl)c(OCCCOc2ccc(Cl)cc2)c(Cl)c1)=C(Cl)Cl`, the mortality at 500 µg/mL with Spodoptera litura [2] amounted to 0%. Further, the outcome in the assay with Sf9 [3] was inactive.
For the compound `FC(F)(F)c1ccc(OCCCOc2c(Cl)cc(OC/C(Cl)=C/Cl)cc2Cl)nc1`, the mortality at 500 µg/mL with Spodoptera litura [2] came out at 0%. In addition, the outcome with Sf9 [3] was inactive.
As for `O=[N+]([O-])c1ccc(O)c([N+](=O)[O-])c1`, the result in the assay with Sf9 [3] was Active.
On to `ClC(Cl)=CCOc1cc(Cl)c(OCCCOc2ccc(Cl)cc2)c(Cl)c1`, for which, in the assay on Spodoptera litura [2], the mortality at 500 µg/mL was 100%. Also, the outcome in the assay on Sf9 [3] was Active.
As to `FC(F)(F)c1ccc(OCCCOc2ccc(OCC=C(Cl)Cl)cc2)nc1`, the mortality at 500 µg/mL in the assay on Spodoptera litura [2] was determined as 0%. For the same compound, in the assay with Sf9 [3], the result was inactive.
For the compound `O=c1[nH]cc(F)c(=O)[nH]1`, the result in the assay with Sf9 [4] was Active.
As for `COP(=O)(NC(C)=O)SC` (stereo unspecified), in the assay on Sf9 [1], the result was Active.
Regarding `C=C(C)[C@H]1Cc2c(ccc3c2O[C@@H]2COc4cc(OC)c(OC)cc4[C@@H]2C3=O)O1`, the result in the assay on Sf9 [5] was Active.
Turning to `COc1ccc(C[C@H]2NC[C@H](O)[C@H]2OC(C)=O)cc1`, the result with Sf9 [3] was Active.
With `CC[C@H]1/C=C/C=C/C[C@@H](C)[C@H](O)[C@@](C)(O)C(=O)[C@@H](C)[C@H](O)[C@@H](C)C(=O)[C@@H](C)[C@H](O)[C@@H](C)/C=C/C(=O)O[C@@H]2[C@H](C)[C@H](CC1)O[C@]1(CC[C@H](C)[C@H](C[C@@H](C)O)O1)[C@H]2C`, the outcome in the assay with Sf9 [5] was Active.
As for `ClC(Cl)=C(Cl)COc1cc(Cl)c(OCCCOc2ccc(Cl)cc2)c(Cl)c1`, the mortality at 500 µg/mL in the assay with Spodoptera litura [2] amounted to 0%. Besides, the result in the assay with Sf9 [3] was inactive.
As to `FC(F)(F)c1ccc(OCCCOc2c(Cl)cc(OCC=C(Cl)Cl)cc2Cl)nc1` [PYRIDALYL], the values for the Activity in the assay with Spodoptera litura [6], in the assay with Spodoptera litura [7] and in the assay on Spodoptera litura [8] were 0.5%, 53.3% and 12.2%, respectively. The mortality at 500 µg/mL with Spodoptera litura [2] was 100%. Moreover, the outcome with Sf9 [9] and in the assay with Sf9 [10] was Active.
Consider `CC1(C)C(C=C(Cl)Cl)C1C(=O)OC(C#N)c1cccc(Oc2ccccc2)c1` (stereo unspecified), for which the outcome in the assay on Sf9 [1] was Active.
For the compound `CCOCn1c(-c2ccc(Cl)cc2)c(C#N)c(Br)c1C(F)(F)F`, in the assay with Sf9 [11], the result was Active.
In the case of `C[C@@]1(CO)[C@H](O)CC[C@@]2(C)[C@H]1CC[C@H]1C[C@@H]3C[C@@]12CC[C@]3(O)CO`, the outcome in the assay on Sf9 [12] was inactive.
